According to article PMC6614837 (Nucleic Acids Research, 2019):

What was measured:
[1] = biological target: T1, RNase P holoenzyme from T. maritima (Thermotoga maritima, UniProt Q9X1H4); assay: End-point urea-PAGE RNase P activity assay with canonical pre-tRNA substrate; assay type: biochemical; conditions: 10% DMSO
T1 construct: made in house
T1 sequence (Q9X1H4 1-117): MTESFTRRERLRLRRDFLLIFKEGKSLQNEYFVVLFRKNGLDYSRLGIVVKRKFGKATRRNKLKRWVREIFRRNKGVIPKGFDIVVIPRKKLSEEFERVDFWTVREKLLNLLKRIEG
Experimental: Supplementary Figure 11 . End-point urea-PAGE RNase P activity assays using a canonical pre-tRNA substrate are in agreement with the fluorescence inhibition experiments. RNase P holoenzyme from T. maritima is inhibited by the four validated hits, as observed in an 18% urea- PAGE end-point assay. RNase P holoenzyme was incubated in the presence of 10% DMSO (+) or different concentrations of compound for 30 min at 37°C. See also Supplementary Figure […]
Supplementary Figure 12. End-point urea-PAGE RNase P activity assays using a canonical pre-tRNA substrate are in agreement with the fluorescence inhibition experiments using the minihelix substrate. Compound-dependent disappearance of the pre-tRNA substrate, with a […]
biological substrate for the inhibitors (juglone and purpurin). The assays were performed under the following conditions: 66 nM RNase P holoenzyme, in a total volume of 20 µL in activity buffer (33 mM Tris, 66 mM HEPES pH 7.4, 400 mM ammonium acetate, 100 mM MgCl2) were incubated in the presence of 10% DMSO (+) or different concentrations of compound for 30 min at 37° C. Then, pre-tRNA was added to a final concentration of 1.6 µM and the reaction was incubated at 55° C for 25 min before gel loading. […]

RNase P holoenzyme = biological target: T2, RNase P holoenzyme (Thermotoga maritima, UniProt Q9X1H4); assay: Biolayer interferometry binding to immobilized RNase P holoenzyme; set-up: species or system T. maritima; conditions: BLI, holoenzyme at 400 nM immobilized on Ni-NTA
T2 construct: GST (cleaved yes); made in house; host or cells: E. coli BL21(DE3)pLysS
T2 sequence (Q9X1H4 1-117): T1 sequence (Q9X1H4 1-117)
Experimental: Real-time binding assays of the holoenzyme, P RNA, P protein, the substrate minihelix and the 5′-leader to individual compounds were performed by biolayer interferometry using an Octet RED96 system (ForteBio). For the holoenzyme or P RNA, a 5′ biotinylated RNA oligonucleotide with the sequence 5′biotin-CAUUCCAGACGAU was immobilized on Super Streptavidin (SSA) biosensors. Then, a modified P RNA or holoenzyme was added. The P RNA modification consisted of a sequence with part of the P1 stem sequence complementary to the biotinylated oligonucleotide (AUCGUCUGGA) (Supplementary Figure S23A). P1 is far from the active site or other regions involved in specific interactions (Supplementary Figure S23B) ([19]). The activity of this construct was indistinguishable from the wild-type holoenzyme. Alternatively, the holoenzyme was immobilized through the His-tagged P protein from T. maritima at 0.05 mg/ml (3.4 μM) on Ni-NTA biosensors. […] Kinetic binding parameters were calculated using Data Analysis 8.2 (ForteBio, Inc.). […]
Figure 4. […] Symbols represent the mean ± standard error as determined from three independent experiments at each concentration. […] RNase P holoenzyme was immobilized on Ni-NTA biosensors, incubated with purpurin at varying concentrations (0–400 μM), and then the association and dissociation pre-tRNA was monitored. […]

Row | SMILES | Inhibition of pre-tRNA cleavage (urea-PAGE end-point) [1] | Kd (RNase P holoenzyme) [µM]
1 | O=C1C=CC(=O)c2c(O)cccc21 [Juglone, 5-hydroxy-1,4-naphthoquinone] | confirms the inhibition | 
2 | O=C1c2ccccc2C(=O)c2c(O)c(O)cc(O)c21 [Purpurin, 1,2,4-trihydroxyanthraquinone] | confirms the inhibition | 13.2
